# Test results taken from patent US5955479A, “Levobupivacaine for managing chronic pain” (Darwin Discovery Ltd., priority 1993, dated 1999).
# Structures can show the parent of a compound that is named as a salt.
# Legend:
# [1] = Tissue concentrations of bupivacaine enantiomers in sheep post-mortem after increasing bolus doses of racbupivacaine HCl until fatal outcome; type: in vivo
# Method: (§1) Four sheep weighing 39-49 kg (mean 44, SD 4 kg) were given increasing bolus doses (from 40 mg) of racbupivacaine HCl These were administered at least 1 day apart via a PVC cannula until a fatal outcome resulted. The heart and brain were removed within 20 min of death to be analysed for bupivacaine concentration. The heart was removed by transection through the great vessels approximately 20 mm above the level of the aortic valve, and 20 mm below the caudal border of the right atrium. Blood was immediately expressed from the cardiac chambers, and representative samples of the left and right atrium and ventricle were obtained, blotted and stored frozen (-20° C.) until assay. The brain was removed by transection at the level of the lower border of the pons, blotted and stored frozen as for the heart tissue.
# The variability in the fatal doses (80-200 mg) was reflected in the tissue concentrations measured post-mortem. Larger differences in the concentrations of both bupivacaine enantiomers in the atrium and ventricle were apparent.
# [2] = described in PCT/GB94/02249; cited from earlier work
# [3] = Vanhoutte et al (1991); Denson et al (1992); cited from earlier work
# [4] = chronic epidural and opioid infusions, 0.1 to 0.5% bupivacaine, cancer pain; cited from earlier work
# [5] = surgical wound infiltrated before closure, 0.25%; cited from earlier work
# [6] = some pain syndromes; cited from earlier work
# [7] = Fatal dose of racbupivacaine HCl in sheep (increasing bolus doses until a fatal outcome); type: in vivo
# Method: as §1
# [8] = levobupivacaine vs dexbupivacaine
# [9] = sheep No. 1, fatal dose 80 mg racbupivacaine HCl
# [10] = sheep No. 2, fatal dose 80 mg racbupivacaine HCl
# [11] = sheep No. 3, fatal dose 200 mg racbupivacaine HCl
# [12] = sheep No. 4, fatal dose 200 mg racbupivacaine HCl
smiles,measurement,setting,value
CCCCN1CCCC[C@H]1C(=O)Nc1c(C)cccc1C [levobupivacaine],Accumulation in the heart and brain,[1]; [8],does not accumulate in the heart and brain as much as the other component (dexbupivacaine)
same,Tissue uptake into ventricle and brain vs dexbupivacaine,[1]; [8],less tissue uptake of levobupivacaine into ventricle and brain than dexbupivacaine
same,Clearance,"[1]; levobupivacaine vs dexbupivacaine, inferred from tissue uptake",improved clearance
same,"Tissue concentration, Atrium",[1]; [9],6.22 µg/g
same,"Tissue concentration, Brain",[1]; [9],6.53 µg/g
same,"Tissue concentration, Ventricle",[1]; [9],8.44 µg/g
same,"Tissue concentration, Atrium",[1]; [10],3.65 µg/g
same,"Tissue concentration, Brain",[1]; [10],4.59 µg/g
same,"Tissue concentration, Ventricle",[1]; [10],7.36 µg/g
same,"Tissue concentration, Atrium",[1]; [11],18.0 µg/g
same,"Tissue concentration, Brain",[1]; [11],11.7 µg/g
same,"Tissue concentration, Ventricle",[1]; [11],44.1 µg/g
same,"Tissue concentration, Atrium",[1]; [12],21.2 µg/g
same,"Tissue concentration, Brain",[1]; [12],16.3 µg/g
same,"Tissue concentration, Ventricle",[1]; [12],33.3 µg/g
same,Cardiodepressant effect relative to racemic bupivacaine,[2],reduced cardiodepressant effect
same,Cardiotoxicity relative to dexbupivacaine and racemic bupivacaine,[3],probably less cardiotoxic than dexbupivacaine and racemic bupivacaine
"CCCCN1CCCCC1C(=O)Nc1c(C)cccc1C (racemic) [racemic bupivacaine, 1-butyl-N-(2,6-dimethylphenyl)-2-piperidinecarboxamide]","R:S ratio of tissue concentration, Atrium",[1]; [9],0.92
same,"R:S ratio of tissue concentration, Brain",[1]; [9],1.06
same,"R:S ratio of tissue concentration, Ventricle",[1]; [9],1.18
same,"R:S ratio of tissue concentration, Atrium",[1]; [10],1.08
same,"R:S ratio of tissue concentration, Brain",[1]; [10],1.08
same,"R:S ratio of tissue concentration, Ventricle",[1]; [10],1.05
same,"R:S ratio of tissue concentration, Atrium",[1]; [11],0.99
same,"R:S ratio of tissue concentration, Brain",[1]; [11],1.09
same,"R:S ratio of tissue concentration, Ventricle",[1]; [11],1.03
same,"R:S ratio of tissue concentration, Atrium",[1]; [12],1.02
same,"R:S ratio of tissue concentration, Brain",[1]; [12],1.08
same,"R:S ratio of tissue concentration, Ventricle",[1]; [12],1.03
same,Bupivacaine clearance,[4],progressive reduction in bupivacaine clearance
same,Control of post-operative pain,[5],effective in the control of post-operative pain
same,Opioid requirements of patients recovering from herniorrhaphy,[5],reduce the opioid requirements
same,Analgesic usefulness in chronic administration,[6],useful in chronic administration as an analgesic in some pain syndromes
CCCCN1CCCC[C@@H]1C(=O)Nc1c(C)cccc1C [dexbupivacaine],Uptake of enantiomers by ventricle and brain,"[1]; both P=0.03 by the Students paired t test, four sheep",more (+)-(R)- than (-)-(S)-bupivacaine being taken up by these tissues
same,Uptake of enantiomers by atrium,"[1]; four sheep, difference R vs S",This was not so for the atrium
same,"Tissue concentration, Atrium",[1]; [9],5.70 µg/g
same,"Tissue concentration, Brain",[1]; [9],6.91 µg/g
same,"Tissue concentration, Ventricle",[1]; [9],9.93 µg/g
same,"Tissue concentration, Atrium",[1]; [10],3.94 µg/g
same,"Tissue concentration, Brain",[1]; [10],4.97 µg/g
same,"Tissue concentration, Ventricle",[1]; [10],7.70 µg/g
same,"Tissue concentration, Atrium",[1]; [11],17.9 µg/g
same,"Tissue concentration, Brain",[1]; [11],12.7 µg/g
same,"Tissue concentration, Ventricle",[1]; [11],45.6 µg/g
same,"Tissue concentration, Atrium",[1]; [12],21.5 µg/g
same,"Tissue concentration, Brain",[1]; [12],17.2 µg/g
same,"Tissue concentration, Ventricle",[1]; [12],34.1 µg/g
CCCCN1CCCCC1C(=O)Nc1c(C)cccc1C (racemic) [racbupivacaine HCl],Fatal doses (variability),"[7]; four sheep, increasing bolus doses",80 to 200 mg
same,Fatal dose,"[7]; sheep No. 1, increasing bolus doses",80 mg
same,Fatal dose,"[7]; sheep No. 2, increasing bolus doses",80 mg
same,Fatal dose,"[7]; sheep No. 3, increasing bolus doses",200 mg
same,Fatal dose,"[7]; sheep No. 4, increasing bolus doses",200 mg
